# Source: US6706698B2, “α-Substituted β-aminoethyl phosphonate derivatives” (Ilex Products, Inc., priority 2000, dated 2004)
# How the values were obtained:
# apo (a) = apo (a) secretion in primary cultures of Cynomolgus hepatocytes (ELISA); format: cell-based, Cynomolgus monkey; conditions: Macaca fascicularis, Hepatocyte, 6-24 hours, vs ethanol control, read-out: change in apo (a) secretion in culture medium, percentage of control
# Experimental: The compounds of formula (I) were assayed for being able to effectively lower the production of apo (a) in primary cultures of Cynomolgus hepatocytes.
# Hepatocytes were isolated from livers of male adult Cynomolgus monkeys by the two-step collagenase perfusion method according to C. Guguen-Guillouzo and A. Guillouzo “Methods for preparation of adult and fetal hepatocytes” p.1-12 in “Isolated and Cultured Hepatocytes”, les editions Inserm Paris and John Libbey Eurotext London (1986).
# The viability of cells was determined by Trypan blue staining. The cells were then seeded at a density of 1.5-2.105 viable cells per 2 cm^2 in 24 well tissue culture plates in a volume of 500 μl per well of Williams E tissue culture medium containing 10% fetal calf serum. Cells were incubated for 6-24 hours at 37° C. in a CO2 incubator (5% CO2) in the presence of 20 μM of the test compounds dissolved in ethanol. Four wells were used for each compound. Nicotinic acid and steroid hormones were used as references to validate the assay system since they are known to decrease apo (a) in man. Control cells were incubated in the presence of ethanol only.
# The amount of apo (a) secreted in culture medium was assayed directly by ELISA using a commercially available kit. Changes in apo (a) concentration in culture medium are given as the percentage of value measured for the control plates.
Structure (SMILES),melting point [°C],inhibition at 20 µM (apo (a)) [%]
CCOP(=O)(OCC)C(CNc1cccnc1)c1cc(OC)c(O)c(OC)c1 (stereo not shown),152 to 154,
CCOP(=O)(OCC)C(CNc1nccs1)c1cc(C)c(O)c(OC)c1 (stereo not shown),85 to 87,
"COc1cc(C(CNc2cccnc2)P(=O)(OC(C)C)OC(C)C)cc(OC)c1O (stereo not drawn) [Compound 33, diisopropyl α-(3,5-dimethoxy-4-hydroxyphenyl)-β-[N-(3-pyridyl)-amino]-ethylphosphonate]",156 to 158,19 to 55
"COc1cc(C(CNc2cccnc2)P(=O)(OC(C)C)OC(C)C)cc(C)c1O (stereo not drawn) [Compound 35, diisopropyl α-(4-hydroxy-3-methoxy-5-methylphenyl)-β-[N-(3-pyridyl)amino]-ethylphosphonate]",,19 to 55
"CCOP(=O)(OCC)C(CNc1cnccn1)c1cc(OC)c(O)c(OC)c1 (stereo not drawn) [Compound 42, diethyl α-(3,5-dimethoxy-4-hydroxyphenyl)-β-[N-(pyrazinyl)-amino]-ethylphosphonate]",147 to 148,19 to 55
"COc1cc(C(CNc2cnccn2)P(=O)(OC(C)C)OC(C)C)cc(OC)c1O (stereo not drawn) [Compound 43, diisopropyl α-(3,5-dimethoxy-4-hydroxyphenyl)-β-[N-(pyrazinyl)-amino]-ethylphosphonate]",169 to 171,19 to 55
"CCOP(=O)(OCC)C(CNc1cnccn1)c1cc(C)c(O)c(OC)c1 (stereo not drawn) [Compound 44, diethyl α-(4-hydroxy-3-methoxy-5-methylphenyl)-β-[N-(pyrazinyl)-amino]-ethylphosphonate]",,19 to 55
"Cc1cc(C(CNc2cccnc2)P(=O)(OC(C)C)OC(C)C)cc(C)c1O (stereo not drawn) [Compound 47, diisopropyl α-(3,5-dimethyl-4-hydroxyphenyl)-β-[N-(3-pyridyl)-amino]-ethylphosphonate]",,19 to 55
"CCOP(=O)(OCC)C(CNc1ncccn1)c1cc(C)c(O)c(OC)c1 (stereo not drawn) [Compound 53, diethyl α-(4-hydroxy-3-methoxy-5-methylphenyl)-β-[N-(2-pyrimidinyl)-amino]-ethylphosphonate]",133 to 136,19 to 55
"CCOc1cc(C(CNc2cccnc2)P(=O)(OCC)OCC)cc(C)c1O (stereo not drawn) [Compound 55, diethyl α-(3-ethoxy-4-hydroxy-5-methylphenyl)-β-[N-(3-pyridyl)-amino]-ethylphosphonate]",155 to 156,19 to 55
"CCOP(=O)(OCC)C(CNc1nc2ccccc2s1)c1cc(C)c(O)c(OC)c1 (stereo not drawn) [Compound 81, diethyl α-(4-hydroxy-3-methoxy-5-methylphenyl)-β-[N-(2-benzothiazolyl)-amino]-ethylphosphonate]",,19 to 55
"CCOP(=O)(OCC)C(CNc1ccon1)c1cc(C)c(O)c(OC)c1 (stereo not drawn) [Compound 87, diethyl α-(4-hydroxy-3-methoxy-5-methylphenyl)-β-[N-(3-isoxazolyl)-amino]-ethylphosphonate]",,19 to 55
"CCOP(=O)(OCC)C(CNc1cnccn1)c1cc(C)c(O)c(C)c1 (stereo not drawn) [Example 25, Diethyl α-(3,5-dimethyl-4-hydroxyphenyl)-β-[N-(pyrazinyl)-amino]-ethylphosphonate]",,19 to 55
"CCOP(=O)(OCC)C(CNc1cnccn1)c1cc(C)c(O)c(C(C)(C)C)c1 (stereo not drawn) [Example 26, Diethyl α-(3-tert-butyl-4-hydroxy-5-methylphenyl)-β-[N-(pyrazinyl)-amino]-ethylphosphonate]",,19 to 55
